Measured values taken from ChEMBL document CHEMBL3885861, “Open TG-GATES”.

Organism: Rattus norvegicus
Experiment: Open TG-GATES - Regimen: Single
Type: toxicity, organism-based, Sprague-Dawley
Parameters: regimen Single, gender Male, age 6 weeks
Settings: in vivo, po, 0 mg/kg, route gavage, dose level Control; for APTT / Bas / Eos / Fbg / Hb / Ht / Lym / MCH / MCHC / MCV / Mono / Neu / PT / Plat / RBC / Ret / WBC: tissue Blood; for KIDNEY_L / KIDNEY_R / KIDNEY_TOTAL: tissue Kidney; for LIVER: tissue Liver; for A/G / ALP / ALT / AST / BUN / CRE / Ca / Cl / DBIL / GLC / IP / K / LDH / Na / PL / RALB / TBIL / TC / TG / TP / gamma-GTP: tissue Plasma

Nc1nc(N)c2nc(-c3ccccc3)c(N)nc2n1
TERMINAL_BW (3 h): 212 g | APTT (3 h): 16.9 s | Bas (3 h): 0% | Eos (3 h): 1% | Fbg (3 h): 287.4 mg/dL | Hb (3 h): 13.9 g/dL | Ht (3 h): 42% | Lym (3 h): 79.2% | MCH (3 h): 21.4 pg | MCHC (3 h): 33% | MCV (3 h): 64.6 fL | Mono (3 h): 3.2% | Neu (3 h): 16% | PT (3 h): 14.2 s | Plat (3 h): 114.1 x10_4/uL | RBC (3 h): 651 x10_4/ul | Ret (3 h): 7.4% | WBC (3 h): 92.6 x10_2/uL | KIDNEY_L (3 h): 1 g | KIDNEY_R (3 h): 1 g | KIDNEY_TOTAL (3 h): 1.9 g | LIVER (3 h): 9.3 g | A/G (3 h): 1 | ALP (3 h): 1479.4 IU/L | ALT (3 h): 44.2 IU/L | AST (3 h): 76.6 IU/L | BUN (3 h): 9.4 mg/dL | CRE (3 h): 0.2 mg/dL | Ca (3 h): 11 mg/dL | Cl (3 h): 105.2 meq/L | DBIL (3 h): 0.008 mg/dL | GLC (3 h): 173.4 mg/dL | IP (3 h): 9.2 mg/dL | K (3 h): 3.9 meq/L | LDH (3 h): 58.4 IU/L | Na (3 h): 143.2 meq/L | PL (3 h): 143.4 mg/dL | RALB (3 h): 2.6 g/dL | TBIL (3 h): 0.06 mg/dL | TC (3 h): 79.6 mg/dL | TG (3 h): 50.8 mg/dL | TP (3 h): 5.3 g/dL | gamma-GTP (3 h): 1 IU/L | TERMINAL_BW (6 h): 211.8 g | APTT (6 h): 16.8 s | Bas (6 h): 0% | Eos (6 h): 0.4% | Fbg (6 h): 302.8 mg/dL | Hb (6 h): 13.9 g/dL | Ht (6 h): 42.3% | Lym (6 h): 77.2% | MCH (6 h): 21.3 pg | MCHC (6 h): 32.9% | MCV (6 h): 64.8 fL | Mono (6 h): 2.6% | Neu (6 h): 19% | PT (6 h): 14 s | Plat (6 h): 123.2 x10_4/uL | RBC (6 h): 653.2 x10_4/ul | Ret (6 h): 7.4% | WBC (6 h): 93.6 x10_2/uL | KIDNEY_L (6 h): 1 g | KIDNEY_R (6 h): 1 g | KIDNEY_TOTAL (6 h): 1.9 g | LIVER (6 h): 9.6 g | A/G (6 h): 0.9 | ALP (6 h): 1424.2 IU/L | ALT (6 h): 34.6 IU/L | AST (6 h): 69.2 IU/L | BUN (6 h): 9.6 mg/dL | CRE (6 h): 0.2 mg/dL | Ca (6 h): 10.8 mg/dL | Cl (6 h): 104.6 meq/L | DBIL (6 h): 0.012 mg/dL | GLC (6 h): 179.2 mg/dL | IP (6 h): 9.7 mg/dL | K (6 h): 4.2 meq/L | LDH (6 h): 57.2 IU/L | Na (6 h): 142.8 meq/L | PL (6 h): 146.8 mg/dL | RALB (6 h): 2.6 g/dL | TBIL (6 h): 0.066 mg/dL | TC (6 h): 77.8 mg/dL | TG (6 h): 84 mg/dL | TP (6 h): 5.3 g/dL | gamma-GTP (6 h): 1.2 IU/L | TERMINAL_BW (9 h): 210.8 g | APTT (9 h): 16.3 s | Bas (9 h): 0.2% | Eos (9 h): 1% | Fbg (9 h): 304.2 mg/dL | Hb (9 h): 13.6 g/dL | Ht (9 h): 41.1% | Lym (9 h): 73% | MCH (9 h): 20.5 pg | MCHC (9 h): 33% | MCV (9 h): 62.2 fL | Mono (9 h): 2% | Neu (9 h): 23.2% | PT (9 h): 14 s | Plat (9 h): 119.1 x10_4/uL | RBC (9 h): 661.2 x10_4/ul | Ret (9 h): 7.1% | WBC (9 h): 83.6 x10_2/uL | KIDNEY_L (9 h): 1 g | KIDNEY_R (9 h): 1 g | KIDNEY_TOTAL (9 h): 1.9 g | LIVER (9 h): 8.5 g | A/G (9 h): 1 | ALP (9 h): 1497.4 IU/L | ALT (9 h): 36.6 IU/L | AST (9 h): 68 IU/L | BUN (9 h): 10 mg/dL | CRE (9 h): 0.2 mg/dL | Ca (9 h): 10.6 mg/dL | Cl (9 h): 106 meq/L | DBIL (9 h): 0.008 mg/dL | GLC (9 h): 173.8 mg/dL | IP (9 h): 9.4 mg/dL | K (9 h): 3.9 meq/L | LDH (9 h): 53.2 IU/L | Na (9 h): 143.6 meq/L | PL (9 h): 132.6 mg/dL | RALB (9 h): 2.5 g/dL | TBIL (9 h): 0.058 mg/dL | TC (9 h): 74 mg/dL | TG (9 h): 41.4 mg/dL | TP (9 h): 5.2 g/dL | gamma-GTP (9 h): 1.4 IU/L | TERMINAL_BW (24 h): 228.1 g | APTT (24 h): 17.1 s | Bas (24 h): 0% | Eos (24 h): 1% | Fbg (24 h): 291 mg/dL | Hb (24 h): 14 g/dL | Ht (24 h): 41.9% | Lym (24 h): 76% | MCH (24 h): 21.5 pg | MCHC (24 h): 33.4% | MCV (24 h): 64.3 fL | Mono (24 h): 2.2% | Neu (24 h): 19.8% | PT (24 h): 13.7 s | Plat (24 h): 120.8 x10_4/uL | RBC (24 h): 652 x10_4/ul | Ret (24 h): 6.9% | WBC (24 h): 78.2 x10_2/uL | KIDNEY_L (24 h): 1 g | KIDNEY_R (24 h): 1 g | KIDNEY_TOTAL (24 h): 2 g | LIVER (24 h): 10.9 g | A/G (24 h): 0.9 | ALP (24 h): 1674.6 IU/L | ALT (24 h): 47.4 IU/L | AST (24 h): 72.2 IU/L | BUN (24 h): 15 mg/dL | CRE (24 h): 0.2 mg/dL | Ca (24 h): 11.2 mg/dL | Cl (24 h): 104.2 meq/L | DBIL (24 h): 0.01 mg/dL | GLC (24 h): 188.6 mg/dL | IP (24 h): 8.2 mg/dL | K (24 h): 4.2 meq/L | LDH (24 h): 72.4 IU/L | Na (24 h): 142.6 meq/L | PL (24 h): 158.6 mg/dL | RALB (24 h): 2.7 g/dL | TBIL (24 h): 0.044 mg/dL | TC (24 h): 80.2 mg/dL | TG (24 h): 109.8 mg/dL | TP (24 h): 5.5 g/dL | gamma-GTP (24 h): 1 IU/L
